Earlier results on one molecule are cited in US10966960B2 (Treeway TW001 B.V., priority 2017, dated 2021).

≈ marks a conversion by molar mass, not a printed value.

For the data set the following is noted: 25° C.

`CC1=NN(c2ccccc2)C(=O)C1` [edaravone, 3-methyl-1-phenyl-2-pyrazolin-5-one]: the solubility in water is on record as roughly 1.85 mg/mL (≈ 10.6 mM).
